Laboratory results from ChEMBL document CHEMBL1201862, “PubChem BioAssay data set” (2004).
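All cell lines were grown in 96-well plates and treated with compound for 48 hours. Here, GI50 denotes the concentration required for 50% inhibition of growth.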 Active and inactive are the calls of the source. Rule as the data show it: active = GI50 up to about 1.1 µM and inactive = higher.

Key:
Assay in all cases: NCI anticancer screen, dose series, 48 h
[1] = tested on: A498
[2] = tested on: BT-549
[3] = tested on: HOP-92
[4] = tested on: IGROV-1
[5] = tested on: K562
[6] = tested on: KM12
[7] = tested on: MDA-MB-231
[8] = tested on: NCI-H226
[9] = tested on: NCI-H23
[10] = tested on: NCI-H460
[11] = tested on: OVCAR-4
[12] = tested on: OVCAR-5
[13] = tested on: RPMI-8226
[14] = tested on: SN12C
[15] = tested on: UACC-62
[16] = tested on: UO-31
[17] = tested on: HL-60
[18] = tested on: LOX IMVI
[19] = tested on: SR
[20] = tested on: MDA-N

| Structure (SMILES) | GI50 [1] | GI50 [2] | GI50 [3] | GI50 [4] | GI50 [5] | GI50 [6] | GI50 [7] | GI50 [8] | GI50 [9] | GI50 [10] | GI50 [11] | GI50 [12] | GI50 [13] | GI50 [14] | GI50 [15] | GI50 [16] | GI50 [17] | GI50 [18] | GI50 [19] | GI50 [20] |
| --- | --- | --- | --- | --- | --- | --- | --- | --- | --- | --- | --- | --- | --- | --- | --- | --- | --- | --- | --- | --- |
| Oc1ccc2ccccc2c1OCc1nnc(CCCCCCCCc2nnc(COc3c(O)ccc4ccccc34)n2Nc2ccccc2)n1Nc1ccccc1 | 40.7 µM (inactive) | 6.19 µM (inactive) | 17.2 µM (inactive) | 7.05 µM (inactive) | 0.0407 µM (active) | 12.5 µM (inactive) | 15.3 µM (inactive) | 8.32 µM (inactive) | 9.29 µM (inactive) | 2.7 µM (inactive) | 10.7 µM (inactive) | 2.51 µM (inactive) | 1.02 µM (active) | 35.7 µM (inactive) | 0.855 µM (active) | 7.46 µM (inactive) |  |  |  |  |
| CC(C)(C)CNC(=O)NCn1cc(-c2ccccc2)nn1 |  | > 100 µM (inactive) | > 100 µM (inactive) | > 100 µM (inactive) | > 100 µM (inactive) | > 100 µM (inactive) | > 100 µM (inactive) | 64.6 µM (inactive) | > 100 µM (inactive) | > 100 µM (inactive) | > 10 µM (inactive) | > 100 µM (inactive) | > 100 µM (inactive) | > 100 µM (inactive) |  |  | > 100 µM (inactive) | > 100 µM (inactive) | > 100 µM (inactive) |  |
| O=[N+]([O-])/C=C(\CS(=O)(=O)c1ccccc1)c1ccc2c(c1)OCO2 | 31.8 µM (inactive) |  | > 100 µM (inactive) | 80.5 µM (inactive) | 66.5 µM (inactive) | 28.4 µM (inactive) | 23.1 µM (inactive) | 30 µM (inactive) | 5.69 µM (inactive) |  |  | 27 µM (inactive) | 87.1 µM (inactive) | 39.7 µM (inactive) | 48.2 µM (inactive) | 28.6 µM (inactive) | 38 µM (inactive) | 37.2 µM (inactive) | 47.5 µM (inactive) | 39.2 µM (inactive) |
| CCCCCCc1nn2c(-c3ccc(C)cc3)nnc2s1 | > 100 µM (inactive) | > 100 µM (inactive) |  |  | > 100 µM (inactive) | > 100 µM (inactive) | > 100 µM (inactive) |  | > 100 µM (inactive) | 80 µM (inactive) | > 100 µM (inactive) | > 100 µM (inactive) | > 100 µM (inactive) | > 100 µM (inactive) | > 100 µM (inactive) | > 100 µM (inactive) |  |  |  | > 100 µM (inactive) |
| CN(C)CCCNC(=O)c1c(-c2cccnc2)cnc2ccccc12 |  | > 100 µM (inactive) | > 100 µM (inactive) | > 100 µM (inactive) | > 100 µM (inactive) | > 10 µM (inactive) |  | > 100 µM (inactive) | > 100 µM (inactive) | > 100 µM (inactive) | > 100 µM (inactive) | > 100 µM (inactive) | > 100 µM (inactive) | > 100 µM (inactive) | > 100 µM (inactive) | > 100 µM (inactive) | > 100 µM (inactive) |  | > 100 µM (inactive) | > 100 µM (inactive) |
| CC(C)(CO)NC(=O)c1cccc(C(=O)NC(C)(C)CO)c1Br |  | > 100 µM (inactive) | > 100 µM (inactive) | > 100 µM (inactive) | > 100 µM (inactive) | > 100 µM (inactive) | > 100 µM (inactive) | > 100 µM (inactive) | > 100 µM (inactive) | > 100 µM (inactive) | > 100 µM (inactive) | > 100 µM (inactive) | > 100 µM (inactive) |  | > 100 µM (inactive) | > 100 µM (inactive) | > 100 µM (inactive) | > 100 µM (inactive) | > 100 µM (inactive) |  |
| O=c1[nH]n(Cc2ccccc2Cl)c2ccccc12 | > 100 µM (inactive) |  | 62.4 µM (inactive) | > 100 µM (inactive) | > 100 µM (inactive) | > 100 µM (inactive) | > 100 µM (inactive) | > 100 µM (inactive) | > 100 µM (inactive) | > 100 µM (inactive) | > 100 µM (inactive) | > 100 µM (inactive) | > 100 µM (inactive) | > 100 µM (inactive) | > 100 µM (inactive) | > 100 µM (inactive) | > 100 µM (inactive) | > 100 µM (inactive) | > 100 µM (inactive) | > 100 µM (inactive) |
| CN(C)N1C(=O)SCC(c2ccccc2)(c2ccccc2)C1=O | > 100 µM (inactive) |  | > 100 µM (inactive) |  | 87.7 µM (inactive) | > 100 µM (inactive) | > 100 µM (inactive) | > 100 µM (inactive) | > 100 µM (inactive) | > 100 µM (inactive) |  | > 100 µM (inactive) | 78 µM (inactive) | > 100 µM (inactive) | 56.8 µM (inactive) | > 100 µM (inactive) | > 100 µM (inactive) | > 100 µM (inactive) | > 100 µM (inactive) | > 100 µM (inactive) |
| O=C1[C@@H]2[C@@H](c3ccccc3)[C@]2(Cl)C(=O)[C@H]2[C@H](c3ccccc3)[C@@]12Cl | > 100 µM (inactive) | 45.8 µM (inactive) | > 100 µM (inactive) | > 100 µM (inactive) | > 100 µM (inactive) | > 100 µM (inactive) | > 100 µM (inactive) | > 100 µM (inactive) | > 100 µM (inactive) | > 100 µM (inactive) | > 100 µM (inactive) | > 100 µM (inactive) |  | > 100 µM (inactive) | > 100 µM (inactive) | 57 µM (inactive) | > 100 µM (inactive) | > 100 µM (inactive) | 0.189 µM (active) |  |
| Cc1cc2c(cc1Cl)SC(NNC1=NCCN1)=NS2(=O)=O | > 10 µM (inactive) | > 10 µM (inactive) |  | > 10 µM (inactive) | > 10 µM (inactive) | > 10 µM (inactive) | > 10 µM (inactive) | > 10 µM (inactive) | > 10 µM (inactive) | > 10 µM (inactive) | > 10 µM (inactive) | > 10 µM (inactive) | > 10 µM (inactive) | > 10 µM (inactive) | > 10 µM (inactive) | > 10 µM (inactive) | > 10 µM (inactive) | > 10 µM (inactive) |  | > 10 µM (inactive) |
| NC(=O)c1ncn(C2CCC(CP(=O)(O)O)C2)c1N (centres undefined) |  |  | > 100 µM (inactive) | > 100 µM (inactive) |  | > 100 µM (inactive) | > 100 µM (inactive) | > 100 µM (inactive) | > 100 µM (inactive) | > 100 µM (inactive) | > 100 µM (inactive) | > 100 µM (inactive) | > 100 µM (inactive) | > 100 µM (inactive) | > 100 µM (inactive) | > 100 µM (inactive) |  | > 100 µM (inactive) | > 100 µM (inactive) | > 100 µM (inactive) |
| COC(C/C(=C/CO[Si](C(C)C)(C(C)C)C(C)C)C(=O)N(C(=O)OC(C)(C)C)c1ccccc1I)OC | > 100 µM (inactive) |  | 2.16 µM (inactive) | 0.0262 µM (active) | > 100 µM (inactive) | 41.9 µM (inactive) | > 10 µM (inactive) | > 100 µM (inactive) | 39.7 µM (inactive) | 31.8 µM (inactive) | 44.6 µM (inactive) | 36.1 µM (inactive) | 15.2 µM (inactive) | 52 µM (inactive) | > 100 µM (inactive) | 42.1 µM (inactive) |  | 18.2 µM (inactive) | 34.4 µM (inactive) | 26.9 µM (inactive) |
| C=C(C)CC1(O[Si](C)(C)C)C(=O)C(OCC)=C1OCC (centres undefined) | > 100 µM (inactive) | > 100 µM (inactive) | > 100 µM (inactive) | > 100 µM (inactive) |  | > 100 µM (inactive) | > 100 µM (inactive) | > 100 µM (inactive) | > 100 µM (inactive) | > 100 µM (inactive) | > 100 µM (inactive) | > 100 µM (inactive) |  | > 100 µM (inactive) | > 100 µM (inactive) | > 100 µM (inactive) | > 100 µM (inactive) | > 100 µM (inactive) |  |  |
| CCOC(=O)C(C#N)C1=CC(=O)C(=O)c2ccc(OC)cc21 (centres undefined) | 21.8 µM (inactive) |  |  | 19.9 µM (inactive) | 36.6 µM (inactive) | 20 µM (inactive) | 14.6 µM (inactive) | 21.6 µM (inactive) | 15.5 µM (inactive) | 24.2 µM (inactive) | 19 µM (inactive) | 20.1 µM (inactive) | > 100 µM (inactive) | 18.6 µM (inactive) | 15.2 µM (inactive) | 17.5 µM (inactive) | 38.3 µM (inactive) | 21.1 µM (inactive) | 57.1 µM (inactive) | 5.83 µM (inactive) |
| CC(C)(C)OC(=O)N1C(c2cccnc2)=CC[C@H]2C3CC=C(c4cccnc4)[C@@]3(C)CC[C@@H]21 (some centres undefined) | 5.81 µM (inactive) | 4.53 µM (inactive) | 2.52 µM (inactive) | 4.16 µM (inactive) | 0.52 µM (active) | 4.06 µM (inactive) |  | 3.56 µM (inactive) | 3.4 µM (inactive) | 3.51 µM (inactive) | 5.09 µM (inactive) | 11.9 µM (inactive) | 1.82 µM (inactive) | 3.67 µM (inactive) | 2.61 µM (inactive) | 4.95 µM (inactive) | 1.97 µM (inactive) | 2.71 µM (inactive) | 3.28 µM (inactive) | 3.05 µM (inactive) |
| C1=CC2C(C3CN(c4ccccc4)N=C13)C1C3C4C=CC21C=CC43 (centres undefined) | > 100 µM (inactive) | > 100 µM (inactive) | 80 µM (inactive) | > 100 µM (inactive) | > 100 µM (inactive) | > 100 µM (inactive) | > 100 µM (inactive) | > 100 µM (inactive) | > 100 µM (inactive) | > 100 µM (inactive) | > 78.5 µM (inactive) | > 100 µM (inactive) | > 100 µM (inactive) | > 100 µM (inactive) | > 100 µM (inactive) | > 100 µM (inactive) | > 100 µM (inactive) | > 100 µM (inactive) |  |  |
